Assay in all cases: DTP human tumour cell line panel, 48 h
The test system of test [1] is COLO 205 colon.
Test [2] has as its system EKVX NSCLC.
Test [3] deals with HL-60(TB) leukemia.
The test system of test [4] is HS 578T breast.
Test [5] relates to IGROV1 ovarian.
Test [6] deals with K-562 leukemia.
In test [7] the test system is NCI-H23 lung.
The test system of test [8] is SK-MEL-5 melanoma.

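Cultured in 96-well plates, cells were exposed to test compound for 48 hours across five concentrations. Abbreviation: GI50, concentration required for 50% inhibition of growth. The concentration for full growth arrest is given as TGI.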

In general, TGI refers to the concentration at which net growth stops. Low readings indicate greater sensitivity of the cells, high ones lower sensitivity of the cells. What is called GI50 is the concentration giving 50% growth inhibition.

Turning to `O=C(O)/C(=C\c1ccncc1)c1cccc2ccccc12`, the TGI in test [1], in test [2], in test [3], in test [4], in test [5] and in test [6] was more than 100 µM each time. The TGI in test [7] and in test [8] was more than 100 µM throughout.

As to `Nc1c(C(=O)Nc2cccc(Cl)c2Cl)sc2nc3c(cc12)C(=O)CCC3`, the GI50 is 1.61 µM in test [1]; more than 100 µM in test [3]; more than 100 µM in test [4]; more than 100 µM in test [5]; 0.958 µM in test [6]; 3.54 µM in test [8]. Moreover, the concentration for total growth inhibition (TGI) in test [1], in test [3], in test [4], in test [5], in test [6] and in test [8] was more than 100 µM throughout.

Take `CC[C@H](C)C(=O)O[C@H]1C[C@H](O)C=C2C=C[C@H](C)[C@H](CC[C@@H](O)C[C@@H](O)CC(=O)O)[C@H]21`: the GI50 in test [1], in test [3], in test [4], in test [5], in test [6] and in test [7] was more than 100 µM throughout. In addition, the GI50 in test [8] is more than 100 µM. The TGI in test [1], in test [3], in test [4], in test [5], in test [6] and in test [7] was more than 100 µM in each case. In test [8], this molecule showed a TGI of more than 100 µM.

On to `Cc1coc2c1C(OC(=O)C(C)C)C1(C)C(C)CCC(O)C1C2=O` (stereo unspecified), for which the total growth inhibition concentration (TGI) in test [1], in test [2], in test [3], in test [4], in test [5] and in test [6] was more than 100 µM throughout. Also, the TGI in test [7] and in test [8] was more than 100 µM each time.

As for `C=CC1=C(C)C2=NC1=CC1=NC(=C(CC)/C1=C\O)C=C1N=C3C(=C1C)C(=O)[C@H](C(=O)OC)C3=C1NC(=C2)[C@@H](C)[C@@H]1CCC(=O)O`, the total growth inhibition concentration (TGI) in test [1] is more than 100 µM; in test [2] it was more than 100 µM; in test [3] it was 92.3 µM; in test [4], more than 100 µM; in test [5], more than 100 µM; in test [6], more than 100 µM. Also, the total growth inhibition concentration (TGI) in test [7] and in test [8] was more than 100 µM each time.

For the molecule `O=C(CCCCC(=O)N/N=C\c1ccccc1O)N/N=C\c1ccccc1O`, the GI50 in test [1] was 3.67 µM; in test [2], 7.75 µM; in test [3] it was 3.07 µM; in test [4], 15.2 µM; in test [5], 3.49 µM; in test [6], 3.92 µM. The GI50 in test [8] is 3.22 µM. The TGI in test [1], in test [2], in test [3], in test [4], in test [5] and in test [6] was more than 100 µM in each case. In test [8], this molecule displayed a concentration for total growth inhibition (TGI) of more than 100 µM.

In the case of `CCN(Cc1c(Cl)cccc1Cl)c1ccc(CO)c(Cl)c1`, the GI50 in test [1] is 2.41 µM; in test [3] it was 8.17 µM; in test [4], 15.8 µM; in test [5], less than 0.0253 µM; in test [6], 0.439 µM; in test [7], 10.8 µM. Further, the GI50 in test [8] was 2.86 µM. The concentration for total growth inhibition (TGI) in test [1] stood at 11.7 µM; in test [3] it was 25.7 µM; in test [4] it was 37.9 µM; in test [6] it was 10.6 µM; in test [7] it was 26.2 µM; in test [8] it was 19.5 µM.

As to `COc1cc2c3c(n(C)c(=O)c2cc1OC)-c1cc2c(cc1/C3=C\CCNCCCN)OCO2`, the GI50 was 0.487 µM in test [1]; 3.83 µM in test [2]; 0.927 µM in test [3]; 2.84 µM in test [4]; 1.82 µM in test [5]; 2.08 µM in test [6]. Further, the GI50 in test [7] was 2.67 µM. Moreover, the TGI in test [1] is 15.4 µM; in test [2], 18 µM; in test [3] it was 8.03 µM; in test [4], 9.52 µM; in test [5], more than 100 µM; in test [6] it was 12.1 µM. Also, in test [7], the total growth inhibition concentration (TGI) was found to be 12.4 µM.

`O=C(CCc1ccc(O)cc1)N/N=C/c1cc(Br)ccc1O`: the GI50 in test [1] was 14 µM; in test [3], 2.5 µM; in test [4] it was 10.1 µM; in test [5], 6.23 µM; in test [6], 3.12 µM; in test [7], 7.42 µM. In addition, the GI50 in test [8] was 3.4 µM. The concentration for total growth inhibition (TGI) is more than 100 µM in test [1]; 9.66 µM in test [3]; more than 100 µM in test [4]; 93.3 µM in test [5]; 28.6 µM in test [6]; more than 100 µM in test [7]. For the same molecule, in test [8], the concentration for total growth inhibition (TGI) stood at 18.1 µM.

In the case of `C/C(=N\NC(=S)N(C)C)c1ccccn1`, the concentration for 50% growth inhibition (GI50) in test [2] is 0.143 µM; in test [3], 0.000325 µM; in test [5], 0.00402 µM; in test [6], 0.000104 µM; in test [8], 0.00143 µM. The TGI is 3.07 µM in test [2]; 37.2 µM in test [4]; 4.66 µM in test [5]; more than 41.3 µM in test [6]; 18.7 µM in test [7].

On to `Oc1c(CN2CCN(c3ccccc3)CC2)cc(Br)c2cccnc12`, for which the concentration for total growth inhibition (TGI) was more than 100 µM in test [1]; more than 29.3 µM in test [2]; 3.81 µM in test [3]; more than 88.6 µM in test [4]; more than 100 µM in test [5]; more than 40.8 µM in test [6]. The same molecule came in with a TGI in test [7] of more than 100 µM.

Regarding `O=C1C(Cl)=C(Nc2cccc(C(F)(F)F)c2)C(=O)N1Cc1ccc(Cl)cc1`, the GI50 in test [1] is 0.867 µM; in test [3], 1.7 µM; in test [4] it was 0.711 µM; in test [5] it was 2.76 µM; in test [6] it was 1.33 µM; in test [7], 0.162 µM. For the same molecule, the GI50 in test [8] is 0.621 µM. Besides, the TGI in test [1] is 20.1 µM; in test [3] it was more than 100 µM; in test [4] it was 33 µM; in test [5], more than 48.5 µM; in test [6], more than 100 µM; in test [7] it was 8.01 µM. Also, the TGI in test [8] was 13.5 µM.

Values taken from PubChem BioAssay (NCI).
